Measured values reported in PubChem BioAssay AID1963975 (Molecular Pharmacology Branch, DTP, NCI, 2024).

Tested on: 624824-186-R-J2-PDC multicell spheroids, viability
Assay: Anticancer human tumor 624824-186-R-J2-PDC patient-derived colon adenocarcinoma cell line growth inhibition [PI3K]
Details: for viability, T/C: stronger effect = lower value
Summary of the method: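 Tumor cells grown as multi-cell spheroids with HUVEC endothelial cells and MSC fibroblast-like stroma were treated with targeted agents combined with inavolisib, alpelisib, duvelisib or copanlisib. Doses fell in half-log steps from near clinical Cmax, else from 10 microM. Viability was measured.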

[1] = curve of first compound, second compound 0.00316 µM
[2] = curve of first compound, second compound 0.01 µM
[3] = curve of first compound, second compound 0.0316 µM
[4] = curve of first compound, second compound 0.1 µM
[5] = curve of first compound, second compound 0.316 µM
[6] = curve of first compound, second compound 1 µM
[7] = second compound 0.00316 µM, first compound 0.0316 µM
[8] = second compound 0.00316 µM, first compound 0.1 µM
[9] = second compound 0.00316 µM, first compound 0.316 µM
[10] = second compound 0.00316 µM, first compound 1 µM
[11] = second compound 0.00316 µM, first compound 3.16 µM
[12] = second compound 0.00316 µM, first compound 10 µM
[13] = second compound 0.01 µM, first compound 0.0316 µM
[14] = second compound 0.01 µM, first compound 0.1 µM
[15] = second compound 0.01 µM, first compound 0.316 µM
[16] = second compound 0.01 µM, first compound 1 µM
[17] = second compound 0.01 µM, first compound 3.16 µM
[18] = second compound 0.01 µM, first compound 10 µM
[19] = second compound 0.0316 µM, first compound 0.0316 µM
[20] = second compound 0.0316 µM, first compound 0.1 µM
[21] = second compound 0.0316 µM, first compound 0.316 µM
[22] = second compound 0.0316 µM, first compound 1 µM
[23] = second compound 0.0316 µM, first compound 3.16 µM
[24] = second compound 0.0316 µM, first compound 10 µM
[25] = second compound 0.1 µM, first compound 0.0316 µM
[26] = second compound 0.1 µM, first compound 0.1 µM
[27] = second compound 0.1 µM, first compound 0.316 µM
[28] = second compound 0.1 µM, first compound 1 µM
[29] = second compound 0.1 µM, first compound 3.16 µM
[30] = second compound 0.1 µM, first compound 10 µM
[31] = second compound 0.316 µM, first compound 0.0316 µM
[32] = second compound 0.316 µM, first compound 0.1 µM
[33] = second compound 0.316 µM, first compound 0.316 µM
[34] = second compound 0.316 µM, first compound 1 µM
[35] = second compound 0.316 µM, first compound 3.16 µM
[36] = second compound 0.316 µM, first compound 10 µM
[37] = second compound 1 µM, first compound 0.0316 µM
[38] = second compound 1 µM, first compound 0.1 µM
[39] = second compound 1 µM, first compound 0.316 µM
[40] = second compound 1 µM, first compound 1 µM
[41] = second compound 1 µM, first compound 3.16 µM
[42] = second compound 1 µM, first compound 10 µM
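Further: spheroids exposed to agents for 7 days before viability read.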
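Wherever viability, T/C is given: 100% = DMSO vehicle treated spheroids.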

Structure (SMILES): C=CC(=O)N1CCN(c2nc(=O)n(-c3c(C)ccnc3C(C)C)c3nc(-c4c(O)cccc4F)c(F)cc23)C(C)C1 (stereo unspecified) + CC(Nc1ccc2c(c1)OCCn1cc(N3C(=O)OCC3C(F)F)nc1-2)C(N)=O
- IC50 [1]: > 10 µM
- IC50 [2]: > 10 µM
- IC50 [3]: > 10 µM
- IC50 [4]: > 10 µM
- IC50 [5]: > 10 µM
- IC50 [6]: > 10 µM
- viability, T/C [7]: 103%
- viability, T/C [8]: 88.3%
- viability, T/C [9]: 94.2%
- viability, T/C [10]: 97.8%
- viability, T/C [11]: 117%
- viability, T/C [12]: 110%
- viability, T/C [13]: 92.6%
- viability, T/C [14]: 88%
- viability, T/C [15]: 88.3%
- viability, T/C [16]: 87.7%
- viability, T/C [17]: 80.3%
- viability, T/C [18]: 96.9%
- viability, T/C [19]: 109%
- viability, T/C [20]: 92.3%
- viability, T/C [21]: 105%
- viability, T/C [22]: 87.3%
- viability, T/C [23]: 101%
- viability, T/C [24]: 85.4%
- viability, T/C [25]: 112%
- viability, T/C [26]: 82.1%
- viability, T/C [27]: 106%
- viability, T/C [28]: 104%
- viability, T/C [29]: 81.2%
- viability, T/C [30]: 103%
- viability, T/C [31]: 83.3%
- viability, T/C [32]: 104%
- viability, T/C [33]: 107%
- viability, T/C [34]: 84.1%
- viability, T/C [35]: 88.7%
- viability, T/C [36]: 79.2%
- viability, T/C [37]: 90.7%
- viability, T/C [38]: 90%
- viability, T/C [39]: 81.1%
- viability, T/C [40]: 92.4%
- viability, T/C [41]: 85.6%
- viability, T/C [42]: 78%

Structure (SMILES): Cn1ncc(Cl)c1-c1cc(C(=O)NC(CN)Cc2cccc(F)c2)sc1Cl (stereo unspecified) + CC(Nc1ccc2c(c1)OCCn1cc(N3C(=O)OCC3C(F)F)nc1-2)C(N)=O
- IC50 [1]: > 10 µM
- IC50 [2]: > 10 µM
- IC50 [3]: > 10 µM
- IC50 [4]: > 10 µM
- IC50 [5]: > 10 µM
- IC50 [6]: > 10 µM
- viability, T/C [7]: 106%
- viability, T/C [8]: 97.5%
- viability, T/C [9]: 75.8%
- viability, T/C [10]: 87.1%
- viability, T/C [11]: 67.7%
- viability, T/C [12]: 78.8%
- viability, T/C [13]: 107%
- viability, T/C [14]: 78.8%
- viability, T/C [15]: 70.9%
- viability, T/C [16]: 78.8%
- viability, T/C [17]: 79.6%
- viability, T/C [18]: 50.4%
- viability, T/C [19]: 101%
- viability, T/C [20]: 71.9%
- viability, T/C [21]: 75.7%
- viability, T/C [22]: 85.9%
- viability, T/C [23]: 78.7%
- viability, T/C [24]: 58.8%
- viability, T/C [25]: 75%
- viability, T/C [26]: 100%
- viability, T/C [27]: 74.5%
- viability, T/C [28]: 81.8%
- viability, T/C [29]: 76.9%
- viability, T/C [30]: 53.1%
- viability, T/C [31]: 71.3%
- viability, T/C [32]: 81.5%
- viability, T/C [33]: 92.6%
- viability, T/C [34]: 85.1%
- viability, T/C [35]: 75.4%
- viability, T/C [36]: 57.3%
- viability, T/C [37]: 86.7%
- viability, T/C [38]: 77.8%
- viability, T/C [39]: 95.4%
- viability, T/C [40]: 76.7%
- viability, T/C [41]: 75.7%
- viability, T/C [42]: 59.3%

Structure (SMILES): C=CC(=O)N1CCN(c2nc(=O)n(-c3c(C)ccnc3C(C)C)c3nc(-c4c(O)cccc4F)c(F)cc23)C(C)C1 (stereo unspecified)
- viability, T/C (compound 0.1 µM): 82% [middle of 4 runs]
- viability, T/C (compound 0.316 µM): 82.1% [middle of 4 runs]
- viability, T/C (compound 1 µM): 99.7% [middle of 4 runs]
- viability, T/C (compound 10 µM): 100% [middle of 4 runs]
- IC50 (curve of compound): > 10 µM

Structure (SMILES): Cn1cnc2c(F)c(Nc3ccc(Br)cc3Cl)c(C(=O)NOCCO)cc21 + CC(Nc1ccc2c(c1)OCCn1cc(N3C(=O)OCC3C(F)F)nc1-2)C(N)=O
- IC50 [1]: > 3 µM
- IC50 [2]: > 3 µM
- IC50 [3]: > 3 µM
- IC50 [4]: > 3 µM
- IC50 [5]: 2.93 µM
- IC50 [6]: 0.669 µM
- viability, T/C (second compound 0.00316 µM, first compound 0.00949 µM): 89.3%
- viability, T/C (second compound 0.00316 µM, first compound 0.03 µM): 76.8%
- viability, T/C (second compound 0.00316 µM, first compound 0.0949 µM): 76%
- viability, T/C (second compound 0.00316 µM, first compound 0.3 µM): 74.8%
- viability, T/C (second compound 0.00316 µM, first compound 0.949 µM): 87.8%
- viability, T/C (second compound 0.00316 µM, first compound 3 µM): 78.7%
- viability, T/C (second compound 0.01 µM, first compound 0.00949 µM): 87.2%
- viability, T/C (second compound 0.01 µM, first compound 0.03 µM): 71.2%
- viability, T/C (second compound 0.01 µM, first compound 0.0949 µM): 81.9%
- viability, T/C (second compound 0.01 µM, first compound 0.3 µM): 70.9%
- viability, T/C (second compound 0.01 µM, first compound 0.949 µM): 89.6%
- viability, T/C (second compound 0.01 µM, first compound 3 µM): 81.8%
- viability, T/C (second compound 0.0316 µM, first compound 0.00949 µM): 72.1%
- viability, T/C (second compound 0.0316 µM, first compound 0.03 µM): 66.2%
- viability, T/C (second compound 0.0316 µM, first compound 0.0949 µM): 75.7%
- viability, T/C (second compound 0.0316 µM, first compound 0.3 µM): 77.4%
- viability, T/C (second compound 0.0316 µM, first compound 0.949 µM): 85.8%
- viability, T/C (second compound 0.0316 µM, first compound 3 µM): 67.1%
- viability, T/C (second compound 0.1 µM, first compound 0.00949 µM): 83.3%
- viability, T/C (second compound 0.1 µM, first compound 0.03 µM): 68.2%
- viability, T/C (second compound 0.1 µM, first compound 0.0949 µM): 61.1%
- viability, T/C (second compound 0.1 µM, first compound 0.3 µM): 84.2%
- viability, T/C (second compound 0.1 µM, first compound 0.949 µM): 67.9%
- viability, T/C (second compound 0.1 µM, first compound 3 µM): 78.8%
- viability, T/C (second compound 0.316 µM, first compound 0.00949 µM): 102%
- viability, T/C (second compound 0.316 µM, first compound 0.03 µM): 68.1%
- viability, T/C (second compound 0.316 µM, first compound 0.0949 µM): 74%
- viability, T/C (second compound 0.316 µM, first compound 0.3 µM): 68.6%
- viability, T/C (second compound 0.316 µM, first compound 0.949 µM): 60.2%
- viability, T/C (second compound 0.316 µM, first compound 3 µM): 50.1%
- viability, T/C (second compound 1 µM, first compound 0.00949 µM): 68.2%
- viability, T/C (second compound 1 µM, first compound 0.03 µM): 68.8%
- viability, T/C (second compound 1 µM, first compound 0.0949 µM): 66.3%
- viability, T/C (second compound 1 µM, first compound 0.3 µM): 59.1%
- viability, T/C (second compound 1 µM, first compound 0.949 µM): 46%
- viability, T/C (second compound 1 µM, first compound 3 µM): 29.5%
